Target: T1, KRAS G12C 1-169, his-tagged protein, GDP-loaded (Homo sapiens, UniProt P01116, G12C)
T1 construct: KRAS G12C 1-169, his-tagged protein, GDP-loaded
Assay: Biochemical assay: covalent binding (modification %) to KRAS G12C by mass spectrometry
Conditions: 2 hour incubation period, 8 μM compound (compounds 21-92)

Row | SMILES | Binding %
1 | C=CC(=O)N1CC(N2Cc3ccc(-c4ccc(C#N)cc4)cc3C2=O)C1 [Compound 80, 4-(2-(1-acryloylazetidin-3-yl)-3-oxoisoindolin-5-yl)benzonitrile] | + (+ indicates binding activity up to 10%)
2 | C=CC(=O)N1CC(N2Cc3ccc(-c4ccc(C(N)=O)cc4)cc3C2=O)C1 [Compound 81, 4-(2-(1-acryloylazetidin-3-yl)-3-oxoisoindolin-5-yl)benzamide] | + (+ indicates binding activity up to 10%)
3 | C=CC(=O)N1CC(N2Cc3ccc(-c4cc(O)cc5ccccc45)nc3C2=O)C1 [Compound 82, 6-(1-acryloylazetidin-3-yl)-2-(3-hydroxynaphthalen-1-yl)-5,6-dihydro-7H-pyrrolo[3,4-b]pyridin-7-one] | + (+ indicates binding activity up to 10%)
4 | C=CC(=O)N1CC(N2Cc3c(C(N)=O)cc(-c4c(O)cccc4F)cc3C2=O)C1 [Compound 83, 2-(1-acryloylazetidin-3-yl)-6-(2-fluoro-6-hydroxyphenyl)-1-oxoisoindoline-4-carboxamide] | + (+ indicates binding activity up to 10%)
5 | C=CC(=O)N1CC(N2Cc3ccc(C(=O)Nc4cn[nH]c4)cc3C2=O)C1 [Compound 84, 2-(1-acryloylazetidin-3-yl)-3-oxo-N-(1H-pyrazol-4-yl)isoindoline-5-carboxamide] | + (+ indicates binding activity up to 10%)
6 | C=CC(=O)N1CCC(N2Cc3c(C(N)=O)cc(-c4c(C)ccc5[nH]ncc45)cc3C2=O)C1 (stereo not shown) [Compound 85, 2-(1-acryloylpyrrolidin-3-yl)-6-(5-methyl-1H-indazol-4-yl)-1-oxoisoindoline-4-carboxamide] | + (+ indicates binding activity up to 10%)
7 | C=CC(=O)N1CC(N2Cc3ccc(NC(=O)c4cn[nH]c4)cc3C2=O)C1 [Compound 86, N-(2-(1-acryloylazetidin-3-yl)-3-oxoisoindolin-5-yl)-1H-pyrazole-4-carboxamide] | + (+ indicates binding activity up to 10%)
8 | C=CC(=O)N1CC(N2Cc3ccc(-c4c(C)ccc5[nH]ncc45)nc3C2=O)C1 [Compound 87, 6-(1-acryloylazetidin-3-yl)-2-(5-methyl-1H-indazol-4-yl)-5,6-dihydro-7H-pyrrolo[3,4-b]pyridin-7-one] | + (+ indicates binding activity up to 10%)
9 | C=CC(=O)N1CC(N2Cc3ccc(-c4nc(N)ncc4C)cc3C2=O)C1 [Compound 88, 2-(1-acryloylazetidin-3-yl)-6-(2-amino-5-methylpyrimidin-4-yl)isoindolin-1-one] | + (+ indicates binding activity up to 10%)
10 | C=CC(=O)N1CC(N2Cc3c(C#N)cc(-c4c(C)ccc5[nH]ncc45)cc3C2=O)C1 [Compound 89, 2-(1-acryloylazetidin-3-yl)-6-(5-methyl-1H-indazol-4-yl)-1-oxoisoindoline-4-carbonitrile] | + (+ indicates binding activity up to 10%)
11 | C=CC(=O)N1CC(N2Cc3ccc(-c4ccc(O)nc4)cc3C2=O)C1 [Compound 90, 2-(1-acryloylazetidin-3-yl)-6-(6-hydroxypyridin-3-yl)isoindolin-1-one] | + (+ indicates binding activity up to 10%)
12 | C=CC(=O)N1CCC(N2Cc3c(C(N)=O)cc(-c4c(O)cccc4F)cc3C2=O)C1 (stereo not shown) [Compound 91, 2-(1-acryloylpyrrolidin-3-yl)-6-(2-fluoro-6-hydroxyphenyl)-1-oxoisoindoline-4-carboxamide] | + (+ indicates binding activity up to 10%)
13 | C=CC(=O)N1CC(N2Cc3c(OC)cc(-c4c(C)ccc5[nH]ncc45)cc3C2=O)C1 [Compound 92, 2-(1-acryloylazetidin-3-yl)-4-methoxy-6-(5-methyl-1H-indazol-4-yl)isoindolin-1-one] | ++ (++ indicates binding activity from 10 to 50%)

Source: patent US10377743B2, “Inhibitors of RAS and methods of use thereof” (Araxes Pharma LLC, priority 2016, dated 2019)
